Data reported in PMC8766756, “Insights on Cancer Cell Inhibition, Subcellular Activities, and Kinase Profile of Phenylacetamides Pending 1H-Imidazol-5-One Variants” (Frontiers in Pharmacology, 2022).
Values joined by “and” are separate entries in the source; they are usually repeats but may differ in a detail not shown here. Equal values may be shown once.

Experiments:
Test in all cases: PamChip tyrosine kinase microarray
Type in all cases: biochemical
Conditions in all cases: 0.1 µM, HL60 lysate
ALK (Q9UM73) = molecular target: T1, ALK (Q9UM73) (Homo sapiens, UniProt Q9UM73)
T1 construct: purchased PamGene (PamChip PTK array, Upstream Kinase Analysis)
Protocol: (§1) The reproducible high potency of KIM-161 on leukemia cell lines was initially speculated to encompass Src tyrosine kinase inhibition. Even so, we also suspected that KIM-161 might be affecting other tyrosine kinases because the HL60 cells are not among the most Src-dependent highly proliferative cells ([Collins, 1987]). Therefore, a profiling of the kinase activities was performed after treatment with KIM-161 using PamChip® tyrosine kinase microarray. This analysis is based on incubation of cell lysate with 3D microarray that projects peptides specific for 143 tyrosine kinases. If a kinase is modified in the cells, it will be detected by phosphorylating its specific peptide in the microarray.
(§2) This test measured the activities of an array of tyrosine kinases of treated HL60 cells compared to the control (untreated cells) after incubation with KIM-161 for 48 h at concentrations of 0.001, 0.01, 0.1, 1.0, 10, and 50 µM. The log fold change (LFC) heat map was initially used to identify significant peptides affected at each concentration (Figure 5).
(§3) An Upstream Kinase Tool was used to generate a putative list of kinases responsible for phosphorylating the phosphosites on the PamChip®. It is an interpretation and is highly dependent on the contents of the underlying phosphorylation databases. Kinase score (Table 2) was used for ranking kinases based on their significance and specificity in terms of the set of peptides used for the corresponding kinase. Kinase statistics indicates the overall change of the peptide set that represents a certain kinase. Kinase statistics value of <0 indicates lower kinase activity in the lysate spiked with the compound and vice versa. Table 2 lists the 20 most changed kinases within treated HL60 cell lysates by 0.1 μM KIM-161.
(§4) Every compound had spiked into a leukemic (AML) cell line HL60 lysate at different concentrations (0.001, 0.01, 0.1, 1, 10, and 50 μM). In addition, DMSO had also spiked at a low concentration (2% v/v) to the HL60 lysate as the control. The samples were profiled on PamGene's tyrosine kinase (PTK) arrays in technical replicates, covering a total of 196 phosphorylation sites. The frozen leukemic HL60 cultured cell pellet was sent to PamGene. At PamGene, the cells were lysed in the presence of the lysis buffer and proteases inhibitor cocktail. The protein concentration was measured using the standard Bradford assay as per the PamGene SOPs. These lysates were further used for generating the PTK activity profiles. For spiking, KIM-161 was received in powder form and dissolved in DMSO at the PamGene facility, followed by storing it at −20°C in small aliquots. PamGene used its in-house bioinformatics toolbox in combination with other methods to generate the hypotheses of signaling pathways.

Abl (P00519) = molecular target: T2, Abl (P00519) (Homo sapiens, UniProt P00519)
T2 construct: purchased PamGene (PamChip PTK array, Upstream Kinase Analysis)
Protocol: as §1, §2, §3, §4

Arg (P42684) = molecular target: T3, Arg (P42684) (Homo sapiens, UniProt P42684)
T3 construct: purchased PamGene (PamChip PTK array, Upstream Kinase Analysis)
Protocol: as §1, §2, §3, §4

Brk (Q13882) = molecular target: T4, Brk (Q13882) (Homo sapiens, UniProt Q13882)
T4 construct: purchased PamGene (PamChip PTK array, Upstream Kinase Analysis)
Protocol: as §1, §2, §3, §4

EGFR (P00533) = molecular target: T5, EGFR (P00533) (Homo sapiens, UniProt P00533)
T5 construct: purchased PamGene (PamChip PTK array, Upstream Kinase Analysis)
Protocol: as §1, §2, §3, §4

FAK2 (Q14289) = molecular target: T6, FAK2 (Q14289) (Homo sapiens, UniProt Q14289)
T6 construct: purchased PamGene (PamChip PTK array, Upstream Kinase Analysis)
Protocol: as §1, §2, §3, §4

FGFR4 (P22455) = molecular target: T7, FGFR4 (P22455) (Homo sapiens, UniProt P22455)
T7 construct: purchased PamGene (PamChip PTK array, Upstream Kinase Analysis)
Protocol: as §1, §2, §3, §4

HER2 (P04626) = molecular target: T8, HER2 (P04626) (Homo sapiens, UniProt P04626)
T8 construct: purchased PamGene (PamChip PTK array, Upstream Kinase Analysis)
Protocol: as §1, §2, §3, §4

HER3 (P21860) = molecular target: T9, HER3 (P21860) (Homo sapiens, UniProt P21860)
T9 construct: purchased PamGene (PamChip PTK array, Upstream Kinase Analysis)
Protocol: as §1, §2, §3, §4

JAK1~b (P23458) = molecular target: T10, JAK1~b (P23458) (Homo sapiens, UniProt P23458)
T10 construct: JAK1~b (P23458); purchased PamGene (PamChip PTK array, Upstream Kinase Analysis)
Protocol: as §1, §2, §3, §4

Kit (P10721) = molecular target: T11, Kit (P10721) (Homo sapiens, UniProt P10721)
T11 construct: purchased PamGene (PamChip PTK array, Upstream Kinase Analysis)
Protocol: as §1, §2, §3, §4

PDGFR[beta] (P09619) = molecular target: T12, PDGFR[beta] (P09619) (Homo sapiens, UniProt P09619)
T12 construct: purchased PamGene (PamChip PTK array, Upstream Kinase Analysis)
Protocol: as §1, §2, §3, §4

T1 sequence (Q9UM73 19-1620): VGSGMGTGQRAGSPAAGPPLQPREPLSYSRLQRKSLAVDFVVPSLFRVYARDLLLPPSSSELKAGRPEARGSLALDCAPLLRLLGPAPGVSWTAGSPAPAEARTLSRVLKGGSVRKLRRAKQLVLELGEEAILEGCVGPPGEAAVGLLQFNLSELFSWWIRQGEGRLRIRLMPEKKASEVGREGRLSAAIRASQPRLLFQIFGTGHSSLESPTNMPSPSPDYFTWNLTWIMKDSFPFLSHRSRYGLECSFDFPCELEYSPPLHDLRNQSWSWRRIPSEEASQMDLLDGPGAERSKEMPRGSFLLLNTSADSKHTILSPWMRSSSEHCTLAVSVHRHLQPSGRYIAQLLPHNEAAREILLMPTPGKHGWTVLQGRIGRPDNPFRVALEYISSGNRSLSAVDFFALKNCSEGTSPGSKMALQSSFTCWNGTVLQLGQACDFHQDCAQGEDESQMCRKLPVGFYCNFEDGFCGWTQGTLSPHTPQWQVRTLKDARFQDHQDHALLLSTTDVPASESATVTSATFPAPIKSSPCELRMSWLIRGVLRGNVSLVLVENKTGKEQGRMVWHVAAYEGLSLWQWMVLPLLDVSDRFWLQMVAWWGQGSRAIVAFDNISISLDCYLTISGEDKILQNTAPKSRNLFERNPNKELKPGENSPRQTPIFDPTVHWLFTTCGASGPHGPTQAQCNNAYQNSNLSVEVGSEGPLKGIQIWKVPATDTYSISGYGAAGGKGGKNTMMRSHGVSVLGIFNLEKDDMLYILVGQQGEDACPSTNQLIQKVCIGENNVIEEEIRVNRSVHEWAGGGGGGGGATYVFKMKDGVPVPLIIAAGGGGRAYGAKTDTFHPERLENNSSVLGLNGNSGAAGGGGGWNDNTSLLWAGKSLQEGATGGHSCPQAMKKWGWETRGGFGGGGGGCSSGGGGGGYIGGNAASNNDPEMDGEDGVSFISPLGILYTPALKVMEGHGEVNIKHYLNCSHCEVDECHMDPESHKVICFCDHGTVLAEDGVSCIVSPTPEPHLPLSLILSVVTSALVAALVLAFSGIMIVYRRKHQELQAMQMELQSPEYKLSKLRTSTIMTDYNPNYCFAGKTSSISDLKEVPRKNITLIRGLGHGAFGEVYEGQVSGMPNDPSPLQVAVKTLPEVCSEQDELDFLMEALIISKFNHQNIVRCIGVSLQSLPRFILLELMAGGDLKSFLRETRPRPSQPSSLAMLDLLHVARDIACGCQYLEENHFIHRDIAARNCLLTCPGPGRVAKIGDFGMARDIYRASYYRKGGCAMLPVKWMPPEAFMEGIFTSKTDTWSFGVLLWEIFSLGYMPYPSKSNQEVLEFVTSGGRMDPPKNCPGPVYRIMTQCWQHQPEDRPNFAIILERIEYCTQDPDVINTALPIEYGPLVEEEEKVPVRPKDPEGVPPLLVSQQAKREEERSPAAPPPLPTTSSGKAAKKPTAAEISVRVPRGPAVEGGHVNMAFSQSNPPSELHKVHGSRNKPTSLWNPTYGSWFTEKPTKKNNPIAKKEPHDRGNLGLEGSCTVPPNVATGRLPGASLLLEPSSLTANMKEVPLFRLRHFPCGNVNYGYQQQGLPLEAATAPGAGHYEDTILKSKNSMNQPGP
T3 sequence (P42684 whole entry): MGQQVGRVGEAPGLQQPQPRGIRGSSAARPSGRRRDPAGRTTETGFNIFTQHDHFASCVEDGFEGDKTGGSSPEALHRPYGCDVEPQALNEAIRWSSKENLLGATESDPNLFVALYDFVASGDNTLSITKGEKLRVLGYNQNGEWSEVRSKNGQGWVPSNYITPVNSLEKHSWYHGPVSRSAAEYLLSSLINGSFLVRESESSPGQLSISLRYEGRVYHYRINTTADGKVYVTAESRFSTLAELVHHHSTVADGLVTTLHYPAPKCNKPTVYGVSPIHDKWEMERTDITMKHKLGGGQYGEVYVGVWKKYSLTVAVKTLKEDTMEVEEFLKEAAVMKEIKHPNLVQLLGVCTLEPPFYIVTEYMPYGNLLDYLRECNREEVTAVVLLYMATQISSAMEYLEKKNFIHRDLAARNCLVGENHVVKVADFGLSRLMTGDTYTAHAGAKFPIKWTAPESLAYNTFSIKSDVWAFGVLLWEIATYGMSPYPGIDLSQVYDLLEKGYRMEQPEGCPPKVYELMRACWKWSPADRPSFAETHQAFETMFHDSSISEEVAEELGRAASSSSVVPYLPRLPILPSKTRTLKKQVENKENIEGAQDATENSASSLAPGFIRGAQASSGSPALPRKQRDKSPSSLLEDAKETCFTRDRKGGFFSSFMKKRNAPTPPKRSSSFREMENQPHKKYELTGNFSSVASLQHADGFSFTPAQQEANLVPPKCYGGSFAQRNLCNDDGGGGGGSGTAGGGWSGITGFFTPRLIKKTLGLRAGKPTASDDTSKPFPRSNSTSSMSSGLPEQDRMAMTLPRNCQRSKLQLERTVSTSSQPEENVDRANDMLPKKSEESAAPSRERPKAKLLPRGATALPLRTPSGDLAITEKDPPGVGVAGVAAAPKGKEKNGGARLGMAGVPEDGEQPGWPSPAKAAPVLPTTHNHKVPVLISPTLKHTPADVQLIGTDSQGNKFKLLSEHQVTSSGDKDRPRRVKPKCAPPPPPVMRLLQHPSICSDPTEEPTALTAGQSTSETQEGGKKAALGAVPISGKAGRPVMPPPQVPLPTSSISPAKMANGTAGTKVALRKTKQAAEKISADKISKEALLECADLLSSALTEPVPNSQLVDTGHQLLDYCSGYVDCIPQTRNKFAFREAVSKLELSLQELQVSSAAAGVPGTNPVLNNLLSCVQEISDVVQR
T11 sequence (P10721 26-976): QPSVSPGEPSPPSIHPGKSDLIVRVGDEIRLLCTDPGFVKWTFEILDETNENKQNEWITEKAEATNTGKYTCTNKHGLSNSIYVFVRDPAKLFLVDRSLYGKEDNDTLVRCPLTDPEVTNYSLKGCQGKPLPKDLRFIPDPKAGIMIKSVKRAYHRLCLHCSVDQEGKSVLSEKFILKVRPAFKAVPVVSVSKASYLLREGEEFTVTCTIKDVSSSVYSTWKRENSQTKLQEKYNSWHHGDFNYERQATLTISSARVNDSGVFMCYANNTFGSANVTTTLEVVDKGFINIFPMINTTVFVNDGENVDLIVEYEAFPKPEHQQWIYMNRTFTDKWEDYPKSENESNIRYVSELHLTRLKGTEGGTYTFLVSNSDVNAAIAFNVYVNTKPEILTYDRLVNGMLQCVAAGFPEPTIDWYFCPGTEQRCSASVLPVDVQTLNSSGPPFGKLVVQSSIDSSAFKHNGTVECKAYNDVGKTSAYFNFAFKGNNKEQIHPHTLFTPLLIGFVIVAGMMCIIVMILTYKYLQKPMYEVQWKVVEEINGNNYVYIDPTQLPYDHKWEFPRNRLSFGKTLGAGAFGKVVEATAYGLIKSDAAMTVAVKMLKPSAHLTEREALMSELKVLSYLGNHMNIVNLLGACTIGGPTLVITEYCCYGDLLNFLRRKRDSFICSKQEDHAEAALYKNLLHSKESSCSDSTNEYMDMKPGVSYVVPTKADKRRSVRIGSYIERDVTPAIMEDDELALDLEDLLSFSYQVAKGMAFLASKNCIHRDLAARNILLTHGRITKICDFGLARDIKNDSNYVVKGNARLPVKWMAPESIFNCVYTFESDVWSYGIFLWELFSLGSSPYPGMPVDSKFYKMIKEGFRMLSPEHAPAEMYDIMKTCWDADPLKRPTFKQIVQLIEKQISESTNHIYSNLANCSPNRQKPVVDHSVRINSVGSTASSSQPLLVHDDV
T5 sequence (P00533 25-1210): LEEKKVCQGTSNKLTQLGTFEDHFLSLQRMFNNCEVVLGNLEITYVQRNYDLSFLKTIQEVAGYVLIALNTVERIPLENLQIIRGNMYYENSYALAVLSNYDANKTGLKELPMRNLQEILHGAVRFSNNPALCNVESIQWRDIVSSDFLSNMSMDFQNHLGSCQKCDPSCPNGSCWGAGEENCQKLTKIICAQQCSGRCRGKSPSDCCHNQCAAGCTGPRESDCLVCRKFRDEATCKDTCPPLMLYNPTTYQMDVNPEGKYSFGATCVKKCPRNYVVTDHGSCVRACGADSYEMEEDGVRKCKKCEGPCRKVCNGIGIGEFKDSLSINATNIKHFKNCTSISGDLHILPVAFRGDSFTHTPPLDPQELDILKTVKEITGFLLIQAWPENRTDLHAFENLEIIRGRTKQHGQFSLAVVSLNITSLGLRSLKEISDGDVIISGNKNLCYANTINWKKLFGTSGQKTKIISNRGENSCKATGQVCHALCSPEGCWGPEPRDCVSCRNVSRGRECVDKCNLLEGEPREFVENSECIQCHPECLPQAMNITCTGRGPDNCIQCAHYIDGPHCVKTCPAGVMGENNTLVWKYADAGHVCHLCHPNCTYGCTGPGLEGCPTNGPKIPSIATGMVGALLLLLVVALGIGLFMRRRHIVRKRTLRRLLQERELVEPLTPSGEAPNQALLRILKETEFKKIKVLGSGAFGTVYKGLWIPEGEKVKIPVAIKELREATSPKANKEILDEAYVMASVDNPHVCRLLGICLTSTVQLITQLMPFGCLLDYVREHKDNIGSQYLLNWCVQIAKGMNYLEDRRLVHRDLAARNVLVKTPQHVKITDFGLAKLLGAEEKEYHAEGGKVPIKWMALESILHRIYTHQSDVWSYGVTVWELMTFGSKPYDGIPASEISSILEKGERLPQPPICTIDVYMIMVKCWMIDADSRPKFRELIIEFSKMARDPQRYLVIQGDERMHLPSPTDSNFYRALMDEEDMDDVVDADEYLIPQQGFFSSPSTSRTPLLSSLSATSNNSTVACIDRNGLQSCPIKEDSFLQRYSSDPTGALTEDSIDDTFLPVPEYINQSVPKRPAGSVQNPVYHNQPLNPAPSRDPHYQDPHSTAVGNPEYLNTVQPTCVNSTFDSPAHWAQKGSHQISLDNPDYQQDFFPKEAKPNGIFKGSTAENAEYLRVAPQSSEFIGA

`COc1ccc(/C=C2\N=C(C)N(c3ccc(CC(=O)NCc4ccccc4)cc3)C2=O)cc1` [Compound 4c, (Z)-N-Benzyl-2-(4-(4-(4-methoxybenzylidene)-2-methyl-5-oxo-4,5-dihydro-1H-imidazol-1-yl)phenyl)acetamide] was tested, and the “Mean Final score (Kinase score)” value (ALK (Q9UM73)) was 2.186, the “Mean Kinase Statistic” value (ALK (Q9UM73)) was -1.125 and the “Mean Significance Score” value (ALK (Q9UM73)) was 2.048. The “Mean Specificity Score” value (ALK (Q9UM73)) was 0.1497, the “Mean Final score (Kinase score)” value (Abl (P00519)) was 2.191 and the “Mean Kinase Statistic” value (Abl (P00519)) was -1.128. For the same molecule, the “Mean Significance Score” value (Abl (P00519)) was 1.966, the “Mean Specificity Score” value (Abl (P00519)) was 0.1837 and the “Mean Final score (Kinase score)” value (Arg (P42684)) was 2.115. The “Mean Kinase Statistic” value (Arg (P42684)) was -1.085, the “Mean Significance Score” value (Arg (P42684)) was 2.048 and the “Mean Specificity Score” value (Arg (P42684)) was 0.07369. The “Mean Final score (Kinase score)” value (Brk (Q13882)) was 2.481, the “Mean Kinase Statistic” value (Brk (Q13882)) was -1.21 and the “Mean Significance Score” value (Brk (Q13882)) was 2.048. The “Mean Specificity Score” value (Brk (Q13882)) was 0.446, the “Mean Final score (Kinase score)” value (EGFR (P00533)) was 2.116 and the “Mean Kinase Statistic” value (EGFR (P00533)) was -1.053. For the same molecule, the “Mean Significance Score” value (EGFR (P00533)) was 2.048, the “Mean Specificity Score” value (EGFR (P00533)) was 0.03887 and the “Mean Final score (Kinase score)” value (FAK2 (Q14289)) was 2.241. For the same molecule, the “Mean Kinase Statistic” value (FAK2 (Q14289)) was -1.142, the “Mean Significance Score” value (FAK2 (Q14289)) was 2.048 and the “Mean Specificity Score” value (FAK2 (Q14289)) was 0.216. For the same molecule, the “Mean Significance Score” value (FGFR4 (P22455)) was 2.023, the “Mean Specificity Score” value (FGFR4 (P22455)) was 0.5516 and the “Mean Final score (Kinase score)” value (FGFR4 (P22455); listed as KIM-161) was 2.73 and 2.7333. The “Mean Final score (Kinase score)” value (HER2 (P04626)) was 2.103, the “Mean Kinase Statistic” value (HER2 (P04626)) was -1.031 and the “Mean Significance Score” value (HER2 (P04626)) was 1.88. For the same molecule, the “Mean Specificity Score” value (HER2 (P04626)) was 0.08906, the “Mean Final score (Kinase score)” value (HER3 (P21860)) was 2.412 and the “Mean Kinase Statistic” value (HER3 (P21860)) was -1.214. For the same molecule, the “Mean Significance Score” value (HER3 (P21860)) was 2.014, the “Mean Specificity Score” value (HER3 (P21860)) was 0.4279 and the “Mean Significance Score” value (JAK1~b (P23458)) was 1.955. The “Mean Specificity Score” value (JAK1~b (P23458)) was 1.609, the “Mean Final score (Kinase score)” value (JAK1~b (P23458); listed as KIM-161) was 3.51 and 3.514 and the “Mean Final score (Kinase score)” value (Kit (P10721)) was 2.581. For the same molecule, the “Mean Kinase Statistic” value (Kit (P10721)) was -1.291, the “Mean Significance Score” value (Kit (P10721)) was 2.048 and the “Mean Specificity Score” value (Kit (P10721)) was 0.5837. The “Mean Final score (Kinase score)” value (PDGFR[beta] (P09619)) was 2.559, the “Mean Kinase Statistic” value (PDGFR[beta] (P09619)) was -1.304 and the “Mean Significance Score” value (PDGFR[beta] (P09619)) was 2.048. The “Mean Specificity Score” value (PDGFR[beta] (P09619)) was 0.562.
